As a reminder, the Ki is the equilibrium dissociation constant of an inhibitor or competing ligand from its target. A high value points to lower affinity.

Data on 13 compounds can be found in BindingDB's records for PubMed 8450829 (Cnrs, 1993).

This assay deals with 5-hydroxytryptamine receptor 5B (Mus musculus, UniProt P31387).
Chain of 5-hydroxytryptamine receptor 5B (P31387 whole entry): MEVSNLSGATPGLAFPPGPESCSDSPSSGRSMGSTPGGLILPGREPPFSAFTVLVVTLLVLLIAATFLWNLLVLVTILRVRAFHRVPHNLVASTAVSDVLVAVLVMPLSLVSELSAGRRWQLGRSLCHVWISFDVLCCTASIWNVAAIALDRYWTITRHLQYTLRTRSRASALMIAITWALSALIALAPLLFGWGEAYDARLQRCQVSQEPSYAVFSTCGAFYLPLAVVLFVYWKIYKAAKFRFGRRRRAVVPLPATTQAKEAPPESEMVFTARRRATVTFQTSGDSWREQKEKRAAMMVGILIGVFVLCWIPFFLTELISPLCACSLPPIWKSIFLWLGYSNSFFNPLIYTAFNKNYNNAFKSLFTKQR

`CNS(=O)(=O)Cc1ccc2[nH]cc(CCN(C)C)c2c1` [Sumax] returned a Ki of 7940 nM.

In the case of `NCC(O)c1ccc(O)c(O)c1` (stereo not drawn) [Noradrenaline,(+)], the Ki is more than 10000 nM.

The compound `CN1C[C@H](C(=O)N[C@]2(C)O[C@@]3(O)[C@@H]4CCCN4C(=O)[C@H](Cc4ccccc4)N3C2=O)C=C2c3cccc4[nH]cc(c34)C[C@H]21` [12'-hydroxy-2'-methyl-5'alpha-(phenylmethyl)ergotaman-3',6',18-trione] had a Ki of 3.16 nM.

As for `FC(F)(F)c1cccc(N2CCNCC2)c1` [TFMPP], the Ki is 3980 nM.

Compound `CCCN(CCC)C1CCc2cccc(O)c2C1` (stereo not drawn) gave a Ki of 398 nM.

With `NCCc1ccc(O)c(O)c1`, the Ki is more than 10000 nM.

For `O=C(c1ccc(F)cc1)C1CCN(CCn2c(=O)[nH]c3ccccc3c2=O)CC1` [3-(2-{4-[(4-fluorophenyl)carbonyl]piperidin-1-yl}ethyl)-1,2,3,4-tetrahydroquinazoline-2,4-dione], the affinity corresponds to a Ki of 1580 nM.

`CSc1ccc2c(c1)C(N1CCN(C)CC1)Cc1ccccc1S2` (stereo not drawn) [methanesulfonic acid;1-methyl-4-(3-methylsulfanyl-5,6-dihydrobenzo[b][1]benzothiepin-5-yl)piperazine] came in with a Ki of 15.8 nM.

Take `NCCc1c[nH]c2ccc(O)cc12` [[3H]-5-HT]: the Ki was found to be 251 nM.

For `NCCc1c[nH]c2ccc(C(N)=O)cc12` [[3H]-5-carboxamidotryptamine], the affinity corresponds to a Ki of 39.8 nM.

In turn, `CN(C)CCc1c[nH]c2ccc(O)cc12` [3-[2-(dimethylamino)ethyl]indol-5-ol] registered a Ki of 1580 nM.

`CC[C@@H](CO)NC(=O)[C@@H]1C=C2c3cccc4c3c(cn4C)C[C@H]2N(C)C1` yielded a Ki of 126 nM.

As for `COc1ccc2[nH]cc(C3=CCNCC3)c2c1` [5-Methoxy-3-(1,2,3,6-tetrahydro-pyridin-4-yl)-1H-indole(RU-24969)], the affinity corresponds to a Ki of 398 nM.
